“And” between values parts separate entries of the source, which are not always exact repeats. Equal values may be shown once. Read-outs that look alike come from different tables or passages of the source.
Assays:
[1] = molecular target: T1, human dopamine D4 receptor (hD4R) (Homo sapiens, UniProt P21917); assay: cell-based functional GPCR assay, cAMP modulation, CHO-D4R; conditions: for % Stimulation of control agonist response: D4 (h), 100 µM test compound, control 300 nM DA; for agonist response (%): D4R, 25 µM test compound; for inhibition at 100 µM: read-out: % Inhibition of control agonist response
T1 sequence (P21917 1-419): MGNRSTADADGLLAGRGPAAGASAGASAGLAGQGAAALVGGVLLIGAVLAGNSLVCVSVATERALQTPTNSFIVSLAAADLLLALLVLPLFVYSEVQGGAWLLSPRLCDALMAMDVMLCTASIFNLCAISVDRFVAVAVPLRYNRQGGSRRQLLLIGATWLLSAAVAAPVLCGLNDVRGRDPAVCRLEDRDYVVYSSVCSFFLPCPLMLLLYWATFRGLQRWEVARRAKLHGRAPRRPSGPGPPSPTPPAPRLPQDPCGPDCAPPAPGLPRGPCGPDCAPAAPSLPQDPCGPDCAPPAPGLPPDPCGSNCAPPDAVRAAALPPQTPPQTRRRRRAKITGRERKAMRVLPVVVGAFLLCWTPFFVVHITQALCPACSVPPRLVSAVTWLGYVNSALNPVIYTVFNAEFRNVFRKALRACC

[2] = molecular target: human dopamine D3 receptor (hD3R) (Homo sapiens, UniProt P35462); assay: cell-based functional GPCR assay, cAMP modulation, CHO-D3R; conditions: for % Stimulation of control agonist response: D3 (h), 100 µM test compound, control 300 nM DA; for agonist response (%): D3R, 25 µM test compound; for inhibition at 100 µM: read-out: % Inhibition of control agonist response
[3] = molecular target: T2, Human Monoamine Oxidase A (hMAO-A) (Homo sapiens, UniProt P21397); assay: hMAO-A inhibition, MAO-Glo chemiluminescent assay and enzyme kinetics; type: biochemical; conditions: for Inhibition Type: Lineweaver–Burk and Dixon plots
T2 construct: purchased Sigma-Aldrich
T2 sequence (P21397 1-527): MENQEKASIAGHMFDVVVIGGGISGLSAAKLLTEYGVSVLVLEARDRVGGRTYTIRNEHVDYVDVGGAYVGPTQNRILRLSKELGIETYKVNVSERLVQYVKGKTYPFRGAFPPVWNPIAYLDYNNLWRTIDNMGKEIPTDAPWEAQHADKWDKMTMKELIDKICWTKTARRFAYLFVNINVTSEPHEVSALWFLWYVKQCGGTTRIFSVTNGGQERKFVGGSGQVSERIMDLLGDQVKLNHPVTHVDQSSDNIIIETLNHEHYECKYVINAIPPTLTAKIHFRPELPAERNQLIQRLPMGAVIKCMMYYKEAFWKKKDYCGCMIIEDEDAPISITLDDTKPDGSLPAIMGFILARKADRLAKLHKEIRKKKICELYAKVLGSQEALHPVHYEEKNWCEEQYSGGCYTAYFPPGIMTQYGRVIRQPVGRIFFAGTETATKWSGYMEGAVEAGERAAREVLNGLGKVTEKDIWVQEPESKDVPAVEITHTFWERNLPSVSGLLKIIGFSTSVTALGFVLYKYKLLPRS

hMAO = assay: initial hMAO activity screen at 100 µg/mL (MAO-Glo); type: biochemical, human; conditions: isozyme not stated
[4] = molecular target: T3, human dopamine D2L receptor (hD2LR) (Homo sapiens, UniProt P14416); assay: cell-based functional GPCR assay, Ca2+ mobilization, CHO-D2LR; conditions: for inhibition at 100 µM / % Stimulation of control agonist response: D2L (h), 100 µM test compound; for inhibition at 100 µM: control 700 nM DA, read-out: % Inhibition of control agonist response (converted); for % Stimulation of control agonist response: control 10 μM DA; for inhibition at 25 µM: D2LR, 25 µM test compound, read-out: % inhibition of DA response
T3 construct: host or cells: CHO (CHO-D2LR)

[5] = molecular target: T4, Human Monoamine Oxidase B (hMAO-B) (Homo sapiens, UniProt P27338); assay: hMAO-B inhibition, MAO-Glo chemiluminescent assay and enzyme kinetics; type: biochemical; conditions: for Inhibition Type: Lineweaver–Burk and Dixon plots; for IC50: log dose-inhibition curve, triplicate, read-out: IC50 (μM, Mean ± SD)
T4 construct: purchased Sigma-Aldrich
T4 sequence (P27338 1-520): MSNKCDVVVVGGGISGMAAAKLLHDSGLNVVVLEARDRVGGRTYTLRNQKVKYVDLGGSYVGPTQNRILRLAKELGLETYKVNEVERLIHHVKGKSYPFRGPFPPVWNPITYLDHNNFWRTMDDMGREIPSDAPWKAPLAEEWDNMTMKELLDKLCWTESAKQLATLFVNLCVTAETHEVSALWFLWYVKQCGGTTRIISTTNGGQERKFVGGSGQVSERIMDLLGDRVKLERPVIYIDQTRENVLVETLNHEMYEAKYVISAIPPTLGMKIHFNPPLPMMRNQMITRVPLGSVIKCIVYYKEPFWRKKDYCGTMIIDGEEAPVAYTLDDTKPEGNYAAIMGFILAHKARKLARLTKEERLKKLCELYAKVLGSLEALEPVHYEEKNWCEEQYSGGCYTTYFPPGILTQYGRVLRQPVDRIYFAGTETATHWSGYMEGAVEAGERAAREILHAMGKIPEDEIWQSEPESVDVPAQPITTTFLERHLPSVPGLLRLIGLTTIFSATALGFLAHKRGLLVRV

[6] = molecular target: human dopamine D1 receptor (hD1R) (Homo sapiens, UniProt P21728); assay: cell-based functional GPCR assay, cAMP modulation, CHO-D1R; conditions: for % Stimulation of control agonist response: D1 (h), 100 µM test compound, control 10 μM DA; for inhibition at 100 µM: read-out: % Inhibition of control agonist response; for inhibition at 25 µM: read-out: % inhibition of DA response
[7] = hMAO-A, Dixon plot, read-out: Ki Value
[8] = hMAO-A, log dose-inhibition curve, triplicate, read-out: IC50 (μM, Mean ± SD)
[9] = hD2LR antagonist effect, read-out: IC50 (inhibition of control agonist response)

human dopamine D1 receptor (hD1R), sequence (P21728 whole entry): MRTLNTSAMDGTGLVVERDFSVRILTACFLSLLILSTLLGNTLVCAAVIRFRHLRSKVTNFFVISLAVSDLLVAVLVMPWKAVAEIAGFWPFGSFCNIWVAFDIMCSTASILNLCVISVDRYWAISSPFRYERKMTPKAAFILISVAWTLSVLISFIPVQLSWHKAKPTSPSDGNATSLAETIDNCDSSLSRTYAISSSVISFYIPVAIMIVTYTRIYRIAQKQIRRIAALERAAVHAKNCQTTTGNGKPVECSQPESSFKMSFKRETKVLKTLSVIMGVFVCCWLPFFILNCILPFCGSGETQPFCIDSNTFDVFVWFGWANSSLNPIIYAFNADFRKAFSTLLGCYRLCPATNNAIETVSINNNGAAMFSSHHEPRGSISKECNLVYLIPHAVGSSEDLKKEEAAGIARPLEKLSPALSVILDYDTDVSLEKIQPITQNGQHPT
human dopamine D3 receptor (hD3R), sequence (P35462 whole entry): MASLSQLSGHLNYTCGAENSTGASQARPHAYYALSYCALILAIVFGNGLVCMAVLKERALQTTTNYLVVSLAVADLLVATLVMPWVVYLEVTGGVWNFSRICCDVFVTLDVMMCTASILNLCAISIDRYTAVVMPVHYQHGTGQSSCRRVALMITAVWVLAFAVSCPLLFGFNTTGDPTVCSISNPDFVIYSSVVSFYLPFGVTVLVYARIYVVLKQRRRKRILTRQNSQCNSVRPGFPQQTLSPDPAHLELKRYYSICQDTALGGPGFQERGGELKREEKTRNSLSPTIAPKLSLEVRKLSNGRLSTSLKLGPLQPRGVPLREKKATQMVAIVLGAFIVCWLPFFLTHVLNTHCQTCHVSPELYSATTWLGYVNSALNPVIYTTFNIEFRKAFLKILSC
T3 sequence (P14416 whole entry): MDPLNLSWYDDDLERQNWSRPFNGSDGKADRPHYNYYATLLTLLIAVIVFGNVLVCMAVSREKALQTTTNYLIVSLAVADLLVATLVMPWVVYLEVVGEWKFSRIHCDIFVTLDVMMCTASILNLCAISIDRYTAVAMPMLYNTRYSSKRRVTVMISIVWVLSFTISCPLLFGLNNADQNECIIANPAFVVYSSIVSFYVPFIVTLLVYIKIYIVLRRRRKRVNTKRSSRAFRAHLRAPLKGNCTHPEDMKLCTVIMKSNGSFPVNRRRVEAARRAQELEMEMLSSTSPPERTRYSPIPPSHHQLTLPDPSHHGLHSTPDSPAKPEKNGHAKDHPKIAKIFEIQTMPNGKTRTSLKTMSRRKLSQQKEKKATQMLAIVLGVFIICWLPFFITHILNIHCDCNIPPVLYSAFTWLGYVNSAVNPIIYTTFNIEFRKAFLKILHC

| % Stimulation of control agonist response [1] | inhibition at 100 µM [1] | EC50 [2] | % Stimulation of control agonist response [2] | agonist response (%) [2] | inhibition at 100 µM [2] | Ki [3, 7] | Inhibition Type ([3]; hMAO-A) | inhibition at 100 µM [4] | % Stimulation of control agonist response [4] | inhibition at 25 µM [4] | Inhibition Type [5] | IC50 [5] | IC50 [6] | % Stimulation of control agonist response [6] | inhibition at 100 µM [6] | inhibition at 25 µM [6] | Structure (SMILES) | EC50 [1] | agonist response (%) [1] | % inhibition of hMAO activity (hMAO) | other results |
| --- | --- | --- | --- | --- | --- | --- | --- | --- | --- | --- | --- | --- | --- | --- | --- | --- | --- | --- | --- | --- | --- |
| 86.30% and 86.30 ± 0.99% | -20.8% | 15.1 µM | 119.9% and 119.9 ± 2.44% | 71.92% | -28.7% | 27 ± 3.98 µM | Competitive | 101% | 7.10 ± 1.47% | 97.2% | Noncompetitive | 18.1 ± 1.06 µM | 6.13 µM | 17.2 ± 8.4% | 87.7% | 92.3% | CC1=C[C@H]2c3c(O)cc(-c4cc5ccc(O)cc5o4)cc3O[C@@]3(c4ccc(O)cc4O)Oc4cc(O)ccc4[C@H](C1)[C@@H]23 [Compound 1, mulberrofuran G] | 17.2 µM | 63.00% | 93.87% | IC50 [3, 8]: 54.79 ± 0.03 µM; IC50 [4, 9]: 2.41 µM; Ki ([5]; Dixon plot, read-out: Ki Value): 17 ± 3.31 µM |
| 46.10% and 46.10 ± 1.76% | 26.9% | 12.6 µM | 102.8% and 102.8 ± 1.36% | 94.93% | -13.4% | 46.9 ± 4.12 µM | Competitive | 78.5% | 4.10 ± 1.06% | 81.1% | mixed type | 90.6 ± 1.72 µM | 7.16 µM | INTER | 67.8% | 66.8% | Cc1cc2c3c(c1)-c1c(O)cc(-c4cc5ccc(O)cc5o4)cc1OC3(c1ccc(O)cc1O)Oc1cc(O)ccc1-2 (stereo not drawn) [Compound 3, albanol B] | – | – | 74.85% | IC50 [3, 8]: 114 ± 2.3 µM; IC50 [4, 9]: 18.4 µM; Kiu (binding constant with enzyme-substrate complex) ([5]; secondary plot): 186.2 ± 10.26 µM; Ki ([5]; secondary plot, read-out: Kic (binding constant with free enzyme)): 55.2 ± 7.79 µM |

| Structure (SMILES) | % Stimulation of control agonist response [1] | inhibition at 100 µM [1] | EC50 [2] | % Stimulation of control agonist response [2] | agonist response (%) [2] | inhibition at 100 µM [2] | Ki [3, 7] | Inhibition Type ([3]; hMAO-A) | inhibition at 100 µM [4] | % Stimulation of control agonist response [4] | inhibition at 25 µM [4] | Inhibition Type [5] | IC50 [5] | IC50 [6] | % Stimulation of control agonist response [6] | inhibition at 100 µM [6] | inhibition at 25 µM [6] | EC50 [1] | agonist response (%) [1] | % inhibition of hMAO activity (hMAO) | other results |
| --- | --- | --- | --- | --- | --- | --- | --- | --- | --- | --- | --- | --- | --- | --- | --- | --- | --- | --- | --- | --- | --- |
| CC(C)=CCc1c(-c2ccc(O)cc2O)oc2c(C3C=C(C)CC(c4ccc(O)cc4O)C3C(=O)c3ccc(O)cc3O)c(O)cc(O)c2c1=O (stereo not drawn) [Compound 2, kuwanon G] | 90.45% and 90.45 ± 0.14% | -29.6% | 20.2 µM | – | – | -27.4% | – | Competitive | 99.2% | NSI | 33.7% | Noncompetitive | 57.7 ± 2.12 µM | 16.5 µM | 0.85 ± 0.24% | 98.8% | 91.1% | 21 µM | 58.66% | 99.05% | IC50 [3]: 70.2 ± 2.6 µM; Ki [3]: 28.3 ± 2.02 µM; IC50 [4]: 31.2 µM; Ki ([5]; Dixon plot, read-out: Ki Value): 52.1 ± 5.56 µM |
